# Test results reported in patent US4064128A, “N,[3-(4'-fluorobenzoyl)propyl]-N2 -(2'-chloro-5'-methylphenoxy)ethyl]p i” (Kali-Chemie Aktiengesellschaft, priority 1971, dated 1977).
# “Also recorded” adds a separate entry of the source.
# Experiments:
# [1] = test system: hexobarbital sleep duration; test: Sleep prolongation test (hexobarbital); assay type: in vivo, female mice; settings: for ED (4-fold prolongation): Mus musculus, po, dose p.o. 30 min before 65 mg/kg i.v. hexobarbital, mice, read-out: Fourfold prolongation of hexobarbital sleep duration; for sedative effect (in words), sleep prolongation and aggression test: prolongation of hexobarbital sleep duration and aggression test
# Protocol: Test 2. Sleep prolongation test
# In this test a dose of the test compound is first administered perorally to female mice. After an interval of 30 minutes a dose of 65 milligrams of hexobarbital per kilogram of body weight of the animal is administered intravenously to the mice. The length of the period after administration of the hexabarbital during which the mouse remains sleeping on its side before turning over onto its abdomen, is then noted.
# [2] = test system: aggression induced by clonidine; test: Inhibition of aggression induced by clonidine (Morpurgo); assay type: in vivo; settings: Mus musculus, ip, 30 min before 46.4 mg/kg i.p. clonidine, mice; read-out: Aggression test (Morpurgo), ED50
# Protocol: Test 3. Inhibition of aggression induced by clonidine
# This test was described by C. Morpurgo in European Journal of Pharmacology,vol. […] In this test 12 mice are separated into pairs and each mouse is injected intraperitoneally with a dose of the test compound. […] Clonidine at this dosage level produces an aggressive behaviour in the mice which expresses itself in violent bouts of fighting and biting. The mice are observed and their behaviour scored in accordance with a point system. The mice are observed during a period of 30 minutes and each pair of mice scores 2 points if, during any 10 minute interval, two or more encounters or bouts had occurred. Six pairs of mice accordingly cannot score more than a total of 36 points during the 30 minute period, which is rated 100%.
# [3] = Acute oral toxicity (LD50 p.o.); assay type: in vivo; settings: for LD50 at 168 h: mouse, in vivo, po, mice, single dose, 7 days survival period; for toxicity (in words): compared with the other tested compounds
# Protocol: Test 1. Acute oral toxicity
# The acute oral toxicity (LD50 p.o.) was determined by peroral administration of a single dose of the compound to fasting white male mice.
# The lethal dose in terms of milligrams of the compound per kilogram of body weight of the tested animals was computed in accordance with the method described by J. P. Litchfeld and F. Wilcoxon in Journal of Pharmacology and Experimental Therapeutics, vol. 96, page 99 (1949).
# The doses that are referred to herein were all computed in accordance with the said method. The results in this test were based upon a survival period of 7 days.
# ileum portion = test: Antihistamine action, Magnus procedure; parameters: species or system Pirbright guinea pigs; settings: Cavia porcellus, guinea pig ileum, read-out: Antihistamine action ED50
# Source text: Test 5. Antihistamine action
# The ED50 has been given in mol/1.
# phenyl quinone writhing = test: Analgesic effect, Writhing test (phenyl quinone); assay type: in vivo, male albino mice (NMRI strain); settings: for ED (effect equal to amidopyrine 100 mg/kg): Mus musculus, oral dose equivalent to 100 mg/kg oral amidopyrine, phenyl quinone 1.5 mg/kg, read-out: Writhing-test (dose producing same effect as amidopyrine)
# Protocol: The analygesic effect of the substance was determined by the Writhing test. The substances to be tested were administered to male albino mice (NMRI strain) in accordance with the method described by E. Sigmund, R. Cadmus and G. Lu in Proc. Soc. exp. […] After 30 minutes, 1.5 mg. of phenyl quinone per kg. of body weight were administered to the test animals through the abdominal cavity. Amidopyrine was orally administered as comparison substance in a dose of 100 mg/kg. The figures set out in Table 2 indicate the oral doses of the compounds according to the invention in mg/kg which produce the same effect as the dose of the comparison substance.
# [4] = listed as compound of the invention
Structure (SMILES),ED (4-fold prolongation) [1] [mg/kg],ED50 [2] [mg/kg],LD50 at 168 h [3] [mg/kg],IC50 (ileum portion) [nM],ED (effect equal to amidopyrine 100 mg/kg) (phenyl quinone writhing) [mg/kg],"sedative effect (in words), sleep prolongation and aggression test [1]",toxicity (in words) [3],"sedative effect (in words), sleep prolongation and aggression test [1, 4]","toxicity (in words) [3, 4]",analgesic effect (in words) (phenyl quinone writhing; Writhing test)
O=C(CCCN1CCN(CCOc2ccc([N+](=O)[O-])cc2)CC1)c1ccc(F)cc1 [4-nitrophenyl],8,0.7,215,4,1.8,,,,,
Cc1cc(Cl)ccc1OCCN1CCN(CCCC(=O)c2ccc(F)cc2)CC1 [4-chloro-2-methylphenyl],100,2.5,1000,17,68.1,,,,,
"Cc1cc(C)cc(OCCN2CCN(CCCC(=O)c3ccc(F)cc3)CC2)c1 [3,5-dimethylphenyl]",68,,297,,6.9,less satisfactory sedative effect,even a higher toxicity,,,
"Cc1cccc(OCCN2CCN(CCCC(=O)c3ccc(F)cc3)CC2)c1C [2,3-dimethylphenyl]",120,4.6,1040,,23,,,,,
Cc1ccc(Cl)c(OCCN2CCN(CCCC(=O)c3ccc(F)cc3)CC2)c1 [2-chloro-5-methylphenyl],7,0.35,464,7,6,substantially better results in regard to sedative effects,,the same or better than that of the 4-nitrophenyl compound,very substantially lower than that of 4-nitrophenyl; also recorded: low toxicity,good analgesic effects
"O=C(CCCN1CCN(Cc2ccc(F)cc2)CC1)c1ccc(F)cc1 [fluorobenzyl, no O-bridge, reference compound]",18.5,7.6,431,120,49.5,,,,,
"O=C(CCCN1CCN(CCOc2ccc(Cl)cc2)CC1)c1ccc(F)cc1 [4-chlorophenyl, reference compound]",21.5,6,336,9,5.5,,,,,
"COc1ccc(CN2CCN(CCCC(=O)c3ccc(F)cc3)CC2)cc1 [methoxyphenyl, no O-bridge, reference compound]",33.9,4.7,431,150,62,,,,,
"Cc1ccc(C)c(OCCN2CCN(CCCC(=O)c3ccc(F)cc3)CC2)c1 [2,5-dimethylphenyl]",100,,1240,,17,,,,,
"O=C(CCCN1CCN(CCOc2c(Cl)cccc2Cl)CC1)c1ccc(F)cc1 [2,6-dichlorophenyl, reference compound]",117,7.4,1020,,,,,,,
